Here are results for 12 compounds from patent US11046729B2, “Dipeptide analogs as TGF-beta inhibitors” (SOUTHERN RESEARCH INSTITUTE, priority 2017, dated 2021).

Values after ≈ are worked out from the molar mass of the structure shown. Values joined by “and” are separate entries in the source; they are usually repeats but may differ in a detail not shown here. Equal values may be shown once. Read-outs that look alike come from different tables or passages of the source. Non-standard residues stand in square brackets, D forms with d. Residues, ends and D or L forms follow the SMILES beside them. *: point of attachment. Orn = NCCC[C@H](N)C(=O)O; Ac5c = NC1(C(=O)O)CCCC1; Aib = CC(C)(N)C(=O)O; Butyryl = CCCC(=O)*

Data set [1] has as its target T1, purified human platelet TSP-1 (activation of recombinant latent TGF-β1) (Homo sapiens, UniProt P07996).
T1 construct: purified human platelet TSP-1 was incubated with compounds; from tissue; host or cells: human platelets
The data set can be described thus: ELISA-based screening assay: TSP-1 activation of recombinant latent TGF-β1. Type of data set: biochemical. As to conditions: for % Inhibition at 50 pM: Table 2, 5e-05 µM. How it is done: For initial screening, an ELISA-based screening assay was used in which purified human platelet TSP-1 was incubated with compounds and then incubated with recombinant latent TGF-β1 (purchased from R&D Systems). Activity is measured in a commercially available ELISA which detects only active TGF-β (R &D Systems). Activity in the presence of compounds is compared to activity in TSP-1+latent TGF-β samples without inhibitory compounds (Lu et al. (2016) Am J Pathol 186:678-690).
(In general: In an ELISA, binding on a coated surface is turned into a signal by an enzyme label.)

Data set [2] has as its system TSP-1 activation of latent TGF-β. The data set can be described thus: cell-based assay of TSP1 activation of latent TGF-β (Table 3; Secondary Assay of Table 1). Set-up: species or system human. How it is done: To specifically assess activity of compounds in liver cell specific assays, two different assays were used. In the first, human hepatic stellate cells were incubated overnight in low serum media to condition the media with secreted latent TGF-β. Purified TSP1 either preincubated with compounds or not will be added to cultures and then conditioned media harvested to assess TGF-β biological activity using the R&D Systems ELISA as above. Hepatic stellate cells will be purchased from commercial sources. Although hepatic stellate cells are the primary drivers of liver fibrosis, conditions which drive liver fibrosis can induce hepatocyte TSP-1 expression which can then have paracrine effects on controlling TGF-β activation in hepatic stellate cells. Furthermore, TGF-β can negatively impact hepatocyte regeneration following injury. Therefore, the ability of compounds to blockTSP-1 activation of latent TGF-β will also be assessed in cultured primary human hepatocytes following the protocol described for the hepatic stellate cells. Similar approaches have successfully been used to screen compounds which inhibit human myeloma cell derived latent TGF-β activation by TSP-1 (Lu et al. (2016) Am J Pathol 186:678-690).

The next data set is described as follows: Solubility. In kind it is physicochemical.
A further data set can be described thus: Log D. Type of data set: physicochemical.
Data set [3] can be described thus: Rat liver microsomal stability. The note with it: rat liver microsomes; read-out: Rat Liver Microsomal Stability t1/2. In kind it is in vitro ADME. A general note: Liver microsomes are vesicles of endoplasmic reticulum, rich in cytochrome P450 enzymes.
Data set [4] is described as follows: Human liver microsomal stability. Type of data set: in vitro ADME. As to conditions: human liver microsomes; read-out: Human Liver Microsomal Stability t1/2.
The nature of data set [5]: Pharmacokinetics (% F, T1/2, Tmax). The note with it: in vivo.
The subject of a further data set is MSCs. Nature of the data set: Osteoblast differentiation by MSCs under osteogenic conditions. The note with it: osteogenic media, 20 days; TGF-β 5 ng/mL, TSP1 10 nM, LSKL 25 μM. Type of data set: cell-based. How it is done:
Referring to FIG. 1A, MSCs were grown to confluence in basal (control) media. Cells were treated with control growth media, osteogenic media, or osteogenic media with TGF-β (5 ng/mL) or stripped TSP1 (10 nM), TSP1+LSKL (SEQ ID NO:1) (25 μM), TSP1+SLLK (SEQ ID NO:2) (25 μM control peptide), or TSP1+anti-TGF-β (5 μg/mL). Cultures were fed daily for 20 days. Alkaline phosphatase staining is representative of triplicate wells.
Referring to FIG. 1B, cells were treated every 2 days for 20 days with MSC growth media (control) or osteogenic media with TGF-β (5 ng/mL) or TSP1 (10 nM) daily treatment with 25 μM LSKL (SEQ ID NO:1) or SLLK (SEQ ID NO:2) peptides. RNA isolated from cells was used for RT-PCR analysis of Runx2 expression. Samples were run in duplicate and each experimental treatment in triplicate.

The subject of the next data set is CAG human myeloma cells. The data set can be described thus: SCID-tibia MM model. Type of data set: in vivo, SCID mice. The method, then:
Referring to FIG. 2A and FIG. 2B, CAG human myeloma cells were injected into the intratibial marrow space of SCID mice. After 2 weeks, tumors were imaged by bioluminescence and serum 1 g kappa levels measured. Mice were randomized to equalize 1 g kappa levels. Osmotic pumps were implanted subcutaneously to deliver saline or LSKL peptide (SEQ ID NO:1) (30 mg/kg/day) (n=10/group). Tumors were imaged and serum 1 g kappa levels measured at 2 and 4 weeks of treatment. Data are means SEM. Bioluminescence; *p=0.019 ANOVA, serum kappa; p=0.037, t-test.
Referring to FIG. 3A-C, at 4 weeks of treatment, tibiae from mice injected with CAG MM cells were fixed and stained with antibody to phosphor-Smad 2. Left panels are from 2 different saline treated mice and the right panels are from LSKL (SEQ ID NO:1)-treated mice. Pixels of brown staining were quantified in 4 fields per animal. 5-6 animals per group were analyzed. Data are the percent area exceeding the threshold for positive staining (FIG. 3A). […] P=0.004.

A further data set concerns CAG MM cells. The data set can be described thus: TGF-β activity in CAG MM cells (phospho-Smad 2 immunoblot). The note with it: 30 nM TSP1, 6 hrs. Type of data set: cell-based, human. How it is done:
Referring to FIG. 4A, CAG MM cells were incubated with 30 nM TSP1 for 6 hrs LSKL (SEQ ID NO:1) or SLLK (SEQ ID NO:2). Cell lysates were immunoblotted for phosphor-Smad 2. Blots were stripped and reprobed for total Smad 2/3 and GAPDH. Results are normalized to GAPDH (untreated controls=1). LSKL (SEQ ID NO:1) reduces TSP1 induced treatment or luciferase activity in cells treated with active TGF-β (not shown).

Another data set has as its system CAG-heparanase MM cells. The data set can be described thus: PAI-1 promoter luciferase reporter assay of conditioned media of CAG-heparanase MM cells treated with TSP1. Type of data set: cell-based, human. As to conditions: 67 nM TSP1, conditioned media. The method, then:
Referring to FIG. 4B, CAG-heparanase MM cells were treated with 67 nM TSP1 and conditioned media were assessed for TGF-β activity using PAI-1 promoter luciferase reporter assay. There is ˜[…] TGF-β in the added TSP1 and LSKL (SEQ ID NO:1) blocks 80% of the CAG-heparanase MM cell generated TGF-β activity.
On the technique in general: A reporter such as luciferase makes a cellular process visible.

The conditions of data set [6]: cited from earlier work.
The conditions of data set [7]: 30 mg/kg i.p., 3 times weekly, 15 weeks; cited from earlier work.
For data set [8], the target named is TSP1 (activation of recombinant latent TGF-β1) (Homo sapiens, UniProt P07996). The data set can be described thus: Latent TGF-β activation by TSP1 in vitro (Quantikine ELISA for TGF-β1). Type of data set: biochemical. As to conditions: TSP1 155 nM. How it is done:
Previous studies have illustrated the ability of tripeptide analogs such as compound no. 93 to block latent TGF-β activation by TSP1 in vitro (see FIG. 5 and FIG. 6). Briefly, TSP1 (155 nM, 20 μg/ml) was incubated for 10 min at 37° C. with 93, LSKL (SEQ ID NO:1), or control SLLK (SEQ ID NO:2) peptide. The mixture was then incubated with […] recombinant latent TGF-β1 for 20 min at 37° C. TGF-β1 activity was measured using an R&D systems Quantikine ELISA for TGF-β1.

In data set [9] the target is recombinant latent TGF-β1 (purchased from R&D Systems) (UniProt P01137). The data set can be described thus: cell-based or functional assay.
[10] abbreviates: ELISA-based assay, Table 2, read-out: % Inhibition at 50 pM.
The mark [11] stands for this setting: Conc. of compound 1 pM (last column: 30 nM).
Setting [12] is: Conc. of compound 50 pM (last column: 300 nM).
[13] abbreviates: Conc. of compound 100 pM (last column: 3 μM).

T1 sequence (P07996 19-1170): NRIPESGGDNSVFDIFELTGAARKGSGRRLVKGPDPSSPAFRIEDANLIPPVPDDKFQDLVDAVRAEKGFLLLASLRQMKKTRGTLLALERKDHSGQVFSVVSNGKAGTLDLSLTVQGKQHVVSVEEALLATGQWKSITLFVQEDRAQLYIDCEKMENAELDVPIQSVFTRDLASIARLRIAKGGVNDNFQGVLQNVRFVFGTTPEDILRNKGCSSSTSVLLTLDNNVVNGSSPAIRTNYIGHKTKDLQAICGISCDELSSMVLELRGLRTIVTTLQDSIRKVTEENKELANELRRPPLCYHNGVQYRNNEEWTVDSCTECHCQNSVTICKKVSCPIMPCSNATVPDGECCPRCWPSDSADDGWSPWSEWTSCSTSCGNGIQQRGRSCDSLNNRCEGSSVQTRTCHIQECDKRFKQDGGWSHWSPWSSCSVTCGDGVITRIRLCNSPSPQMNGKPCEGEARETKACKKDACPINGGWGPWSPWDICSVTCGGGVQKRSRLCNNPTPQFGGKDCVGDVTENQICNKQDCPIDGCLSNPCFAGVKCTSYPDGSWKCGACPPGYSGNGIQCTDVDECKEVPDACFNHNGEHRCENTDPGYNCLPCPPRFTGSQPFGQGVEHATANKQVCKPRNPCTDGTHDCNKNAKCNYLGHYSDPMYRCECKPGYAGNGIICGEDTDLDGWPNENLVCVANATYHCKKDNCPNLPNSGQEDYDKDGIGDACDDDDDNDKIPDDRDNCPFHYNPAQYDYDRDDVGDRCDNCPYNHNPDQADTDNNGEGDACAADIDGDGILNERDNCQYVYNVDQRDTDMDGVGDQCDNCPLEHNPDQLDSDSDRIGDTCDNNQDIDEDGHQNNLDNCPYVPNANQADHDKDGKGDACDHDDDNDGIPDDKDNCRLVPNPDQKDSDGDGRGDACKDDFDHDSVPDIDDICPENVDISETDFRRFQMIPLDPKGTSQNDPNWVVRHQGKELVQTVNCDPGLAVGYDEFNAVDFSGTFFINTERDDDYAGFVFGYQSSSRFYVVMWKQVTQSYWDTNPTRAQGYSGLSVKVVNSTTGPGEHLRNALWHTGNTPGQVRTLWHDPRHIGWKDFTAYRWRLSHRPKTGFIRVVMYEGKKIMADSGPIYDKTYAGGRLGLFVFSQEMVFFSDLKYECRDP
Sequence of recombinant latent TGF-β1 (purchased from R&D Systems) (P01137 30-390 limits assumed): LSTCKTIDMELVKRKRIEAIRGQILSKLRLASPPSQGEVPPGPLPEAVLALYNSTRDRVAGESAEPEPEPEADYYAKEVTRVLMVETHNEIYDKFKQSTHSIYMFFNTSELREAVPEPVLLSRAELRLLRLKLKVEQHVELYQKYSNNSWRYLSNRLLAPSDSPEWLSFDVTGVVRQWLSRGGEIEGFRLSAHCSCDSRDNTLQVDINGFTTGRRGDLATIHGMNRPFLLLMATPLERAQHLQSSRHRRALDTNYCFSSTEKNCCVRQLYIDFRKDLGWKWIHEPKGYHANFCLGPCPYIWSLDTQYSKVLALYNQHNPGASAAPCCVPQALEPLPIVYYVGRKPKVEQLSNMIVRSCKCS
Sequence of TSP1 (activation of recombinant latent TGF-β1) (P07996 19-1170): as the sequence (P07996 19-1170) above

On to `CC(=O)N[C@@H](CCCN)C(=O)NC(C)(C)C(N)=O` [Compound 8, (S)-2-acetamido-5-amino-N-(1-amino-2-methyl-1-oxopropan-2-yl)pentanamide] (Ac-[Orn]-[Aib]-NH2), for which the values for the inhibition at 50 pM in data set [1] (setting [10]) and in data set [1] (read-out: Primary Assay (% Inhibition at 50 pM)) were 100% and 79%, respectively. Further, the figures for the “% Inhibition” value in [2] (setting [11]), in [2] (setting [12]) and in [2] (setting [13]) were 65%, 79% and 80%, respectively. Further, the “Conc. of Active TGF-β (pM)” value in data set [2] (setting [11]) was 2.3 pM; in data set [2] (setting [12]) it was 0.81 pM; in data set [2] (setting [13]), 0.78 pM. Also, the inhibition (commonly how much of the control response was suppressed) at 0.3 µM in [2] (Homo sapiens, read-out: Secondary Assay: % Inhibition at 300 nM) was 92%. Moreover, the Solubility (usually the dissolved amount per volume that the medium holds) in “Solubility” was 4.5 µM (≈ 1.16 µg/mL). The logD (in general, the decadic logarithm of the distribution of all forms, ionised or not, between an organic phase and buffer at a given pH) in “Log D” was 1. Also, the half-life in data set [3] was 2.84 h; in [4], 5 h; in data set [5] (iv), 1.9 h. The Tmax (in general, the time at which the peak concentration occurs) in [5] is 0.5 h. Besides, the bioavailability (usually dose-corrected exposure relative to a reference, in per cent) in data set [5] was 5%.
`CC(=O)N[C@@H](CCCN)C(=O)NC1(C(N)=O)CCCC1` [Compound 13, (S)-1-(2-Acetamido-5-aminopentanamido)cyclopentanecarboxamide] (Ac-[Orn]-[Ac5c]-NH2): the inhibition at 50 pM in data set [1] (setting [10]) is 35%.
On to `CC(=O)N[C@@H](CCCN)C(=O)Nc1cc(C)c[nH]c1=O` [Compound 30, (S)-2-acetamido-5-amino-N-(5-methyl-2-oxo-1,2-dihydropyridin-3-yl)pentanamide], for which the inhibition at 50 pM in [1] (setting [10]) amounted to 50%.
Take `CC(C)C[C@H](NC(=O)[C@H](CCCN)NC(=O)C1CCCC1)C(N)=O` [Compound 37, N—((S)-5-amino-1-(((S)-1-amino-4-methyl-1-oxopentan-2-yl)amino)-1-oxopentan-2-yl)cyclopentanecarboxamide]: the inhibition at 50 pM in data set [1] (setting [10]) was 30%.
As to `CC(=O)N[C@@H](CC(C)C)C(=O)N[C@@H](CCCN)C(N)=O` [Compound 61, (S)-2-acetamido-N—((S)-1,5-diamino-1-oxopentan-2-yl)-4-methylpentanamide] (Ac-Leu-[Orn]-NH2), the % Inhibition (as a rule, the share of the control response that was lost under treatment) at 50 pM in [1] (ELISA-based assay) was 63% and 99%.
For `CCCC(=O)N[C@@H](CCCN)C(=O)N[C@@H](CC(C)C)C(N)=O` [Compound 63, (S)-5-amino-N—((S)-1-amino-4-methyl-1-oxopentan-2-yl)-2-butyramidopentanamide] (Butyryl-[Orn]-Leu-NH2), the “% Inhibition at 50 pM” value in [1] (ELISA-based assay) was 59% and 85%. The “% Inhibition” value in [2] (setting [11]) amounted to 67%; in [2] (setting [12]), 82%; in data set [2] (setting [13]) it was 100%. The “Conc. of Active TGF-β (pM)” value in data set [2] (setting [11]) was determined as 2.2 pM; in [2] (setting [12]), 0.7 pM; in data set [2] (setting [13]), 0 pM.
With `CC(=O)N[C@@H](CCCN)C(=O)NCC(N)=O` [Compound 82, (S)-2-acetamido-5-amino-N-(2-amino-2-oxoethyl)pentanamide] (Ac-[Orn]-Gly-NH2), the inhibition at 50 pM in data set [1] (setting [10]) was found to be 100%. Also, the “% Inhibition” value in data set [2] (setting [11]) was determined as 17%; in data set [2] (setting [12]), 80%; in [2] (setting [13]), 100%. For the same compound, the “Conc. of Active TGF-β (pM)” value was 4.2 pM in data set [2] (setting [11]), 0.79 pM in [2] (setting [12]) and 0 pM in [2] (setting [13]).
Consider LSKL, for which, in the data set on MSCs, the “osteoblast differentiation by MSCs (alkaline phosphatase staining, Runx2 expression)” value (from here on “osteoblast differentiation by MSCs”) is recorded as “Increases Osteoblast Differentiation”. The “MM tumor burden (bioluminescence, serum Ig kappa)” value in the data set on CAG human myeloma cells (30 mg/kg/day by subcutaneous osmotic pump, 2 and 4 weeks of treatment) is on record as “Reduces Mm Tumor Burden”. In addition, the “phospho-Smad 2 staining in the bone marrow” value in the data set on CAG human myeloma cells (4 weeks of treatment, tibiae) is listed as “Reduces Phospho-Smad 2”. In addition, the “TGF-β activity in CAG MM cells (phospho-Smad 2)” value in the data set with CAG MM cells is “Reduces TGF-B Activity”. Besides, the “block of CAG-heparanase MM cell generated TGF-β activity” value in the data set with CAG-heparanase MM cells was determined as 80%. The plasma stability half-life in data set [6] is 2.1 min. In addition, in data set [7], the “necropsy findings after treatment” value was “no inflammation, no tumors in all major organs, and no impairment of wound healing”.
For the compound SLLK, in data set [8], the “latent TGF-β activation by TSP1 in vitro (TGF-β1 activity vs TSP1+latent TGF-β)” value was “not significant”.
TGF-β: the “osteoblast differentiation by MSCs” value in the data set on MSCs is given as “Decrease Osteoblast Differentiation”.
Take “Thrombospondin 1 (TSP1), purified human platelet TSP-1 (from UniProt P07996 19-1170)”: the Conc. of Active TGF-β (pM), ELISA which detects only active TGF-β in data set [9] amounted to 4.9 pM.
With Thrombospondin 1 [TSP1], the “osteoblast differentiation by MSCs” value with MSCs was “Decrease Osteoblast Differentiation”. Also, the “TGF-β activity in CAG MM cells (phospho-Smad 2)” value with CAG MM cells was “Induces TGF-B Activity”.
